Source: PMC4870705, “Topical Delivery of Protein and Peptide Using Novel Cell Penetrating Peptide IMT-P8” (Scientific Reports, 2016)
Entries after “also recorded” stand apart in the source; their conditions may differ.

What was measured:
[1] = system: HeLa cells; assay: Cell viability assay (MTT); assay type: cell-based, human; details: 24 h, serum containing medium; for Cell viability (MTT): HeLa, unlabeled peptide 0, 5, 10 and 20 μM, 37 °C
Protocol: (§1) Figure 3 Cell viability assay. (A) HeLa, (B) PC3 and (C) MDA-MB-231 cells were incubated with increasing concentrations (5, 10, and 20 μM) of peptides in serum containing medium at 37 °C for 24 h. Cell viability was measured by MTT assay. Viability of only cells (without peptide) was taken as 100% and viabilities of cells treated with increasing concentration of peptides were plotted as percentage of control.
(§2) Cell viability was determined by MTT assay. Briefly, cells (HeLa, PC3 and MDA-MB-231) were seeded at a density of 5 × 10^3 cells/well in 96-well microtiter plates in medium supplemented with 10% FBS 24 h before the start of the experiment. Cells were incubated with different concentrations (5, 10, and 20 μM, respectively) of unlabeled peptides for 24 h. […] At the end of the incubation period, cell growth was assayed by the addition of 20 μl of MTT (5 mg/mL; Sigma-Aldrich) to each well, and plate was incubated at 37 °C for 4 h. Later, the medium was removed carefully, 200 μl DMSO was added and mixed, and the absorbance was read at 570 nm with a microplate reader (Bio-Rad). The survival of cells relative to the control (cells incubated with growth medium containing no peptide) was calculated by taking the ratio of the absorbance at 570 nm values. All the experiments were performed in triplicates.

[2] = system: HeLa cells; assay: Confocal laser scanning microscopy, intracellular localization in live cells; details: FITC-labeled peptide 2.5 μM, 30 min, 37 °C
Protocol: Cells were washed with PBS thrice and live cells were imaged. Scale bars are 10 μm.
Cells were not fixed to avoid artifactual localization of the internalized peptide. At the end of the incubation period, culture medium was removed, and coverslips were washed thoroughly with PBS for 3–5 minutes (thrice) and mounted on glass slides with the antifade reagent.
Thereafter, cells were washed with PBS thrice and immediately examined using the confocal microscope.

[3] = system: MDA-MB-231 cells; assay: Cell viability assay (MTT); assay type: cell-based, human; details: unlabeled peptide 5, 10 and 20 μM, 24 h, serum containing medium
Protocol: as §1, §2

[4] = system: PC3 cells; assay: Cell viability assay (MTT); assay type: cell-based, human; details: unlabeled peptide 5, 10 and 20 μM, 24 h, serum containing medium
Protocol: as §1, §2

Sequence | Cell viability (MTT) [1] | Internalization / fluorescence in cells by CLSM [2] | Cell viability (MTT) at 20 μM ([1]; unlabeled peptide 20 μM, HeLa (text says all cell lines examined)) | Cell viability (MTT) [3] | Cell viability (MTT) [4]
KLAKLAKKLAKLAK [reference compound] | not effective at any concentration tested | no fluorescence |  |  | 
KLAKLAKKLAKLAKRRWRRWNRFNRRRCR [IMT-P8-KLA, fusion peptide of KLA and IMT-P8, 29 aa] | dose-dependent decrease in cell viability; also recorded: caused significant cell death |  | significant decrease in cell viability | dose-dependent decrease in cell viability | dose-dependent decrease in cell viability
RRWRRWNRFNRRRCR [IMT-P8, novel human protein-derived arginine-rich cell-penetrating peptide (Institute of Microbial Technology-Peptide 8), 15 aa] | not effective at any concentration tested |  |  |  | 
